Legend:
[1] = tested on: osteoblastic cells; conditions: comparable to growth factors such as BMP and IGF-1; cited from earlier work
[2] = tested on: bone formation; conditions: mice; cited from earlier work
[3] = tested on: bone fracture; conditions: rats; local injection near the fracture site; cited from earlier work
[4] = tested on: dentin and pulp tissue of teeth with deep class V preparations; experiment: Indirect pulp capping study in dogs (deep class V preparations in maxillary teeth)
Method: Deep class V preparations were made without penetrating the pulp cavity on the buccal (labial) side of 8 maxillary teeth (2 premolars and 1 molar on each side of the oral cavity in one canine) in 10-month old Beagle dogs. A radiograph was taken to confirm location of the pulp cavity. The cavities (defects) were drilled perpendicular to the tooth axis (pulp cavity). […] The solution was left in the dry cavity for 2 minutes after which the base of the cavity was covered with Vitrebond and the teeth were sealed with composite.
The solution was left in the dry cavity for 2 minutes after which the cavities were filled with cotton and sealed with Cavit. The dogs in Treatment group 2 were re-treated 3× a week for 1 week (the teeth on the left side) or for 2 weeks (the teeth on the right side). […] The solution was left in the dry cavity for 2 minutes after which the cavities were filled with cotton and sealed with Cavit.
The teeth in treatment group 3 were used as negative (saline) or positive (Dycal) controls. Two of the 4 teeth per animal that were used as negative controls were treated with 2 uL saline. The solution was left in the dry cavity for 2 minutes after which the base of the cavity was covered with Vitrebond and the teeth were sealed with composite. The other 2 teeth used as negative control were treated for 15 sec with Scotchbond Etchant (Single Bond adhesive system), washed with water, air dried and treated with 2 uL saline. The solution was left in the dry cavity for 2 minutes after which the base of the cavity was covered with Single Bond, cured with light and the teeth were sealed with composite. The 2 teeth per animal in treatment group 3 that were used as a positive control were treated with Dycal and sealed with composite using standard operating procedures.
After the specimens were received, the specimens were processed, decalcified and embedded in paraffin. The maxilla specimens were stained with Haematoxylin and eosin (H&E) for new dentin formation evaluation. For immunohistochemistry evaluations, the sections were stained with TUNEL assay for evaluation of apoptosis (score 0-4), and CD45 antibody for inflammation evaluations.
Histopathological assessment of the stained section was done without knowledge of treatment group. Qualitative observations included the analysis of the tooth and underlying bone, including any soft tissue, which may have come into contact with the test material formulation. Cellular infiltrates (score 0-16) and inflammatory responses (score 0-4) at the repair site and the soft tissues were also evaluated.

[5] = tested on: human dental pulp cells; conditions: cited from earlier work
[6] = tested on: primary mesenchimal stem cell culture; conditions: in vitro; cited from earlier work
[7] = tested on: alveolar bone extraction socket
From the text: One mandibular premolar per side was extracted. The intra-socket septae in the extraction socket were removed and the wound margins adapted.
Treatment Group I (10 dogs-5 per each time point 3 days and 28 days): • a.
Treatment Group 2 (10 dogs-5 per each time point 3 days and 28 days): • a.
Treatment Group 3 (6 dogs-3 per each time point 3 days and 28 days): • a. Right side: create gingival flap around #407; extract #407 (section with 7011); remove intra-socket septa with 5511; radiograph; measure socket depth; soak a collagen sponge in BMP2; apply collagen sponge to socket; close gingival flap with 4-0 maxon. • b. Left side; create gingival flap around #307; extract #307 (section with 701 l); remove intra-socket septa with 551 l; radiograph; measure socket depth; soak a collagen sponge in 100 μl of saline, apply collagen sponge to socket; close gingival flap with 4-0 maxon.
After the specimens were received, the specimens were processed, decalcified and embedded in paraffin. The mandible specimens were stained with Toluidine blue for osteoblast evaluations.
Histopathological assessment of the stained section was done without knowledge of treatment group. Qualitative observations included the analysis of the underlying bone, including any soft tissue, which may have come into contact with the test material formulation. Fibrous tissue encapsulation, cellular infiltrates and inflammatory responses at the repair site and the soft tissues were also evaluated.
Static histomorphometric analysis was performed on sections stained with toluidine blue stain to determine the percent area of bone in-growth present within the samples using an OsteoMeasure® image analysis system, and associate software (version 4.00c). The amount and quality of the newly formed bone was scored for 0-4, respectively, and evaluated collectively. Tissue reaction such as inflammation and presence of fibrous tissue were also evaluated using the respective scoring system.

Sequence: TDLQERGDNDISPFSGDGQPFKD [AC-100]
- proliferation and differentiation of osteoblastic cells [1]: potent activities on proliferation and differentiation of osteoblastic cells
- in vitro and in vivo bone formation activities [2]: comparable to the same activities of fibroblast growth factor (FGF)
- bone fracture healing [3]: stimulates bone fracture healing
- maximum stimulation of new dentin formation, relative to saline ([4]; 200 ug, 3 times per week for one week, day 28): 8 times
- new dentin formation compared with Dycal ([4]; 28 days post surgery, highest two doses of AC-100 (20 ug and 200 ug), depending on the application schedule): comparable to or better than Dycal
- new dentin formation ([4]; 28 days post surgery, versus saline negative control, single and multiple application schedules): dose dependent stimulation of new dentin formation
- number of apoptotic cells in the pulp ([4]; both 3 and 28 days post surgery, almost all doses applied): dose dependently decreased the number of apoptotic cells
- new dentin formation, multiple versus single application schedule ([4]; day 28): worked significantly better than the single application one
- new dentin formation, single application ([4]; highest dose of AC-100, single application, comparable to Dycal): marginal activity
- new dentin formation, sealing with Single Bond+composite versus Vitrebond+Composite ([4]; single application schedule, almost all doses of AC-100): worked markedly better than sealing with Vitrebond+Composite
- apoptotic and necrotic cell death in the pulp cavities (study summary) ([4]; summary of Example 1): almost complete reduction of inflammatory reactions as well as apoptotic or necrotic cell death
- inflammatory reactions in the pulp cavities (study summary) ([4]; summary of Example 1): almost complete reduction of inflammatory reactions
- regeneration of new dentin in the defects (study summary) ([4]; summary of Example 1): superior regeneration of new dentin tissue
- pulp tissue reaction at the highest dose ([4]; three days post surgery, 200 ug): completely abolishing the pulp reaction
- pulp inflammation ([4]; three days post surgery, almost all doses applied): completely abolishing the pulp inflammation
- pulp tissue reaction (inflammatory and fibrosis response) ([4]; three days post surgery, sealed with Single Bond or Vitrebond): dose dependent inhibition of the tissue reaction
- proliferation and differentiation of human dental pulp cells [5]: potent activities on proliferation but not differentiation
- proliferation and differentiation of the cells to osteoblasts [6]: dose dependently induce proliferation and differentiation
- presence of connective tissue and provisional matrix in the defects ([7]; day 3 after the extraction): dose dependent increase
- tissue reaction in the extraction sockets ([7]; day 3 after the extraction): dose dependent increase in tissue reaction
- percentage of connective tissue in the defects versus saline ([7]; day 28): comparable
- quality of the new bone formed in the defect ([7]; day 28): dose dependently increases the quality of the new bone
- rate with which the defect is filled with new bone ([7]; day 28): dose dependently decreases the rate
- inflammatory response versus saline control ([7]; dog, in vivo): no significant difference
- bone growth, multiple re-applications versus single application ([7]; re-applied directly in the extraction sockets): not as effective as the single application regimen
- bone growth (bone ingrowth) ([7]; single application at surgery, 1 mg and 10 mg on a collagen sponge, 28 days): caused stimulation of bone growth

From patent US20060193916A1, “Formulations of peptides for periodontal and dental treatments” (Acologix, Inc., priority 2005, published 2006)
